Measurements from paper PMC8800111 (The Journal of Biological Chemistry, 2021).

How the values were obtained:
Assay type in all cases: cell-based
[1] = biological target: proteins of U3A human fibrosarcoma cells (4462 proteins detected) (Homo sapiens, UniProt P50990); conditions: protein CCT8; U3A cells
[2] = biological target: proteins of U3A human fibrosarcoma cells (4462 proteins detected) (Homo sapiens, UniProt O75347); conditions: protein TBCA, U3A cells
[3] = biological target: proteins of U3A human fibrosarcoma cells (4462 proteins detected) (Homo sapiens, UniProt P36542); conditions: protein ATP5C1; U3A cells
Sequence of proteins of U3A human fibrosarcoma cells (4462 proteins detected) (Homo sapiens, UniProt P36542) (P36542 26-298): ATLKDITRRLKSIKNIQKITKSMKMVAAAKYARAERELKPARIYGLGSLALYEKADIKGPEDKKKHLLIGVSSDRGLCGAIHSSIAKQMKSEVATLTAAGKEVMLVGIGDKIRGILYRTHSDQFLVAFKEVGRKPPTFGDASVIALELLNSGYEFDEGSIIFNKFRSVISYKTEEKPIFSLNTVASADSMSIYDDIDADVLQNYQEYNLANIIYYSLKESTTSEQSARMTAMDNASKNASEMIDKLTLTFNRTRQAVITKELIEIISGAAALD

[4] = biological target: proteins of U3A human fibrosarcoma cells (4462 proteins detected) (Homo sapiens, UniProt Q8TDP1); conditions: protein RNASEH2C, U3A cells
[5] = biological target: proteins of U3A human fibrosarcoma cells (4462 proteins detected) (Homo sapiens, UniProt P48637); conditions: protein GSS; soluble abundance after heat, U3A cells
[6] = biological target: proteins of U3A human fibrosarcoma cells (4462 proteins detected) (Homo sapiens, UniProt O15294); conditions: protein OGT; U3A cells
[7] = biological target: proteins of U3A human fibrosarcoma cells (4462 proteins detected) (Homo sapiens, UniProt Q9Y399); conditions: protein MRPS2; U3A, 10 μM, 2 h
[8] = biological target: proteins of U3A human fibrosarcoma cells (4462 proteins detected) (Homo sapiens, UniProt P55769); conditions: protein NHP2L1; soluble abundance after heat, U3A cells
[9] = biological target: proteins of U3A human fibrosarcoma cells (4462 proteins detected) (Homo sapiens, UniProt P26006); conditions: protein ITGA3; U3A cells
[10] = biological target: proteins of U3A human fibrosarcoma cells (4462 proteins detected) (Homo sapiens, UniProt Q8TAQ2); conditions: protein SMARCC2; soluble abundance after heat, U3A cells
Sequence of proteins of U3A human fibrosarcoma cells (4462 proteins detected) (Homo sapiens, UniProt Q8TAQ2) (Q8TAQ2 whole entry): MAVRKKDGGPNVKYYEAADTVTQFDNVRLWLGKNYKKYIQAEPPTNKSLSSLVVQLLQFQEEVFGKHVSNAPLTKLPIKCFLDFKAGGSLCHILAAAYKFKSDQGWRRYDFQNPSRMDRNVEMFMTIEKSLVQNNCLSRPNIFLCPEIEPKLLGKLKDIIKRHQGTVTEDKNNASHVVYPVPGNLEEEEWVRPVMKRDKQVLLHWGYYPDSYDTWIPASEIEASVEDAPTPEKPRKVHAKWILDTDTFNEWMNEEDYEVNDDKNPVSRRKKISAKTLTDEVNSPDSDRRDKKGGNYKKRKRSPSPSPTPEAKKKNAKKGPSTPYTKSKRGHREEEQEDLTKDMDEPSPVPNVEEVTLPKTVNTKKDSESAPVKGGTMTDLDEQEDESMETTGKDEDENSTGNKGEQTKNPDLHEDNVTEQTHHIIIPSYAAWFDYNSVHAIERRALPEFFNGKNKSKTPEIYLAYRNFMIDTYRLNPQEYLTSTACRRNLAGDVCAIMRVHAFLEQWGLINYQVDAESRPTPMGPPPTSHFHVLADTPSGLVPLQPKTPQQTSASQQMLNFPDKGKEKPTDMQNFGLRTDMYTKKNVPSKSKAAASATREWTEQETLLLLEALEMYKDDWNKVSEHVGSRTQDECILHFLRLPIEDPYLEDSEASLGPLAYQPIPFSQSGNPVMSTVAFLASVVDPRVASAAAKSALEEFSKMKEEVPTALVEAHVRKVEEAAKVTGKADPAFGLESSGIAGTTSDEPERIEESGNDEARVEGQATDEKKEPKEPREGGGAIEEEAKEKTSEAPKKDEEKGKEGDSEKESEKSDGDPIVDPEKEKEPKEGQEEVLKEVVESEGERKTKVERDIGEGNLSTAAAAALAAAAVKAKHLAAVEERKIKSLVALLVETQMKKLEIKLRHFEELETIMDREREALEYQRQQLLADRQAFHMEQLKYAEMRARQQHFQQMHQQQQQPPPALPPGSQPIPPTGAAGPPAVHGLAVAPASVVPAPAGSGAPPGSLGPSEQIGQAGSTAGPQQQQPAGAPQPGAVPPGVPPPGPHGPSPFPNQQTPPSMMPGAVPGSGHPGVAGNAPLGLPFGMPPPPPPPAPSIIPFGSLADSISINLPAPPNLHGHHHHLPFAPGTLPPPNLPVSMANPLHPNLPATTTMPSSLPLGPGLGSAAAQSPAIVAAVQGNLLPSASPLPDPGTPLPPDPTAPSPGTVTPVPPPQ

[11] = biological target: proteins of U3A human fibrosarcoma cells (4462 proteins detected) (Homo sapiens, UniProt P17813); conditions: protein ENG; U3A cells
[12] = biological target: proteins of U3A human fibrosarcoma cells (4462 proteins detected) (Homo sapiens, UniProt Q9Y266); conditions: protein NUDC; U3A cells
Sequence of proteins of U3A human fibrosarcoma cells (4462 proteins detected) (Homo sapiens, UniProt Q9Y266) (Q9Y266 whole entry): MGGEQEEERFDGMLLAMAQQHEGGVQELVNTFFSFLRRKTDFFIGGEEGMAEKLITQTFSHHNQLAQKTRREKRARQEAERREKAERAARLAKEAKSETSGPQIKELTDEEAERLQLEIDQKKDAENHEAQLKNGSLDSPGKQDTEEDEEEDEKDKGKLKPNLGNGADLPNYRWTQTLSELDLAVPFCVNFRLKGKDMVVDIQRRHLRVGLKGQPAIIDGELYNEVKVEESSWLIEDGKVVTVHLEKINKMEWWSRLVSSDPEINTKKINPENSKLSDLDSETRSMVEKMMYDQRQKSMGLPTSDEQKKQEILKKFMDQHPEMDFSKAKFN

[13] = biological target: proteins of U3A human fibrosarcoma cells (4462 proteins detected) (Homo sapiens, UniProt Q9BWU0); conditions: protein SLC4A1AP, U3A cells
[14] = biological target: proteins of U3A human fibrosarcoma cells (4462 proteins detected) (Homo sapiens, UniProt P49247); conditions: protein RPIA, U3A cells
[15] = biological target: proteins of U3A human fibrosarcoma cells (4462 proteins detected) (Homo sapiens, UniProt Q8TBF4); conditions: protein ZCRB1; soluble abundance after heat, U3A cells
[16] = biological target: proteins of U3A human fibrosarcoma cells (4462 proteins detected) (Homo sapiens, UniProt O75886); conditions: protein STAM2; U3A cells
[17] = biological target: proteins of U3A human fibrosarcoma cells (4462 proteins detected) (Homo sapiens, UniProt O60341); conditions: protein KDM1A; soluble abundance after heat, U3A cells
[18] = biological target: proteins of U3A human fibrosarcoma cells (4462 proteins detected) (Homo sapiens, UniProt Q9UIJ7); conditions: protein AK3; U3A cells
Sequence of proteins of U3A human fibrosarcoma cells (4462 proteins detected) (Homo sapiens, UniProt Q9UIJ7) (Q9UIJ7 whole entry): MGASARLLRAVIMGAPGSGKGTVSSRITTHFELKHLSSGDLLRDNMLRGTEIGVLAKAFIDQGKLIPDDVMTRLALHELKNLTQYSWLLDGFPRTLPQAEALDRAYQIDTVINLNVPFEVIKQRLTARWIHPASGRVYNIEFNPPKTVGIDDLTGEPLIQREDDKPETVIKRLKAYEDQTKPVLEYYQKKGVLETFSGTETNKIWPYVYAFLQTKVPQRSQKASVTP

[19] = biological target: proteins of U3A human fibrosarcoma cells (4462 proteins detected) (Homo sapiens, UniProt Q9Y3A4); conditions: protein RRP7A; U3A cells
Sequence of proteins of U3A human fibrosarcoma cells (4462 proteins detected) (Homo sapiens, UniProt Q9Y3A4) (Q9Y3A4 whole entry): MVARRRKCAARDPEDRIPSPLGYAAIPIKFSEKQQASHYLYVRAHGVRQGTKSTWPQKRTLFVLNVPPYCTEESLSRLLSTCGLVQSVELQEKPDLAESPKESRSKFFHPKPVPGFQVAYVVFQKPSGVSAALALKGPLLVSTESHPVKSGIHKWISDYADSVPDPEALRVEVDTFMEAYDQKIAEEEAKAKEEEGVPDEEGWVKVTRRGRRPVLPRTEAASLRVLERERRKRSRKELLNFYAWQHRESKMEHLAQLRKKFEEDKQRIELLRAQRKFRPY

[20] = biological target: proteins of U3A human fibrosarcoma cells (4462 proteins detected) (Homo sapiens, UniProt Q8WW12); conditions: protein PCNP, U3A cells
[21] = biological target: proteins of U3A human fibrosarcoma cells (4462 proteins detected) (Homo sapiens, UniProt Q9NYZ3); conditions: protein GTSE1; U3A cells
Sequence of proteins of U3A human fibrosarcoma cells (4462 proteins detected) (Homo sapiens, UniProt Q9NYZ3) (Q9NYZ3 whole entry): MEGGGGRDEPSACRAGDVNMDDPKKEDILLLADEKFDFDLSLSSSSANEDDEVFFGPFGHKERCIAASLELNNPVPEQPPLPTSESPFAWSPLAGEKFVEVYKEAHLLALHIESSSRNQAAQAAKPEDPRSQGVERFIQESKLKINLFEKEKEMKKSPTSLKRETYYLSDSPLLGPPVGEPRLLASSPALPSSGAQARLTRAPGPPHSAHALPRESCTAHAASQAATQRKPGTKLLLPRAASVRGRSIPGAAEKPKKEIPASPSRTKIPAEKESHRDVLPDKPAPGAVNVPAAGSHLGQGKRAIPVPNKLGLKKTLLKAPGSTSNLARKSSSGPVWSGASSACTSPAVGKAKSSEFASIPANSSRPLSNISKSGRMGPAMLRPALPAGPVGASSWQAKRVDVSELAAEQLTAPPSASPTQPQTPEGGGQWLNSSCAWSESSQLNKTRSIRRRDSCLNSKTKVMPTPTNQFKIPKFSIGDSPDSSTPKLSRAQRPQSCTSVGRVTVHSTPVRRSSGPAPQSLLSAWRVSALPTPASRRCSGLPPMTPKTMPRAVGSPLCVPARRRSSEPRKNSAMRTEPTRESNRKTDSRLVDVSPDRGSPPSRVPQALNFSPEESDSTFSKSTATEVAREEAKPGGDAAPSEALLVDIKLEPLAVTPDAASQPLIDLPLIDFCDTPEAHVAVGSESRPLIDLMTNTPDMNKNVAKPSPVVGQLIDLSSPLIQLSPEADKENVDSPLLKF

[22] = biological target: proteins of U3A human fibrosarcoma cells (4462 proteins detected) (Homo sapiens, UniProt Q32P44); conditions: protein EML3, U3A cells
Sequence of proteins of U3A human fibrosarcoma cells (4462 proteins detected) (Homo sapiens, UniProt Q32P44) (Q32P44 whole entry): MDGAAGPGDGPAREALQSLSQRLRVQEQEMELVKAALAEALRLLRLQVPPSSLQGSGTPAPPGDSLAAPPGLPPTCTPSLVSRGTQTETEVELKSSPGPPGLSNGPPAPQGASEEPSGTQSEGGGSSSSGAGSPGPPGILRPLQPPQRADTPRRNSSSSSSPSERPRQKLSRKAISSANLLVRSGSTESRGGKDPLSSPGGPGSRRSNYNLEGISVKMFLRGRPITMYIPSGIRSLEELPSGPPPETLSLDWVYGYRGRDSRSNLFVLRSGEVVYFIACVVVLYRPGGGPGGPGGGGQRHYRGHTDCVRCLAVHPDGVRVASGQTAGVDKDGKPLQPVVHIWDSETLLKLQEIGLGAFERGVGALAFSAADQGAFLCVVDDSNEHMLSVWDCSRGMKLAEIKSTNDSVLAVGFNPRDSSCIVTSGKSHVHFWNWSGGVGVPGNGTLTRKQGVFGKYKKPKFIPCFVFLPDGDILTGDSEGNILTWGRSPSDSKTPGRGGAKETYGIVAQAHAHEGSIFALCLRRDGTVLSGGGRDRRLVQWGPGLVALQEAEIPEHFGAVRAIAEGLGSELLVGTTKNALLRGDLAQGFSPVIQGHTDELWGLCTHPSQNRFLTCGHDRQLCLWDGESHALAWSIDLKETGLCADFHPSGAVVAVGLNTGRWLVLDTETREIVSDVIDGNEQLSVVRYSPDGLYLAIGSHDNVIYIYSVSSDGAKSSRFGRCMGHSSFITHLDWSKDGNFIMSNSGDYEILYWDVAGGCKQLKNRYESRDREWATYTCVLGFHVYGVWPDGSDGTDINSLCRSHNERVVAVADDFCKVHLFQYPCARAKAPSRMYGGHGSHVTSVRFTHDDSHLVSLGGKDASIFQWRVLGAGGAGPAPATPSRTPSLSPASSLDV

[23] = biological target: proteins of U3A human fibrosarcoma cells (4462 proteins detected) (Homo sapiens, UniProt Q9H832); conditions: protein UBE2Z; U3A, 10 μM, 2 h
[24] = biological target: proteins of U3A human fibrosarcoma cells (4462 proteins detected) (Homo sapiens, UniProt Q12893); conditions: protein TMEM115; U3A, 10 μM, 2 h
[25] = biological target: proteins of U3A human fibrosarcoma cells (4462 proteins detected) (Homo sapiens, UniProt P02786); conditions: protein TFRC; U3A cells
[26] = biological target: proteins of U3A human fibrosarcoma cells (4462 proteins detected) (Homo sapiens, UniProt Q9H1B7); conditions: protein IRF2BPL; soluble abundance after heat, U3A cells
[27] = biological target: proteins of U3A human fibrosarcoma cells (4462 proteins detected) (Homo sapiens, UniProt Q99470); conditions: protein SDF2, U3A cells
Sequence of proteins of U3A human fibrosarcoma cells (4462 proteins detected) (Homo sapiens, UniProt Q99470) (Q99470 19-211): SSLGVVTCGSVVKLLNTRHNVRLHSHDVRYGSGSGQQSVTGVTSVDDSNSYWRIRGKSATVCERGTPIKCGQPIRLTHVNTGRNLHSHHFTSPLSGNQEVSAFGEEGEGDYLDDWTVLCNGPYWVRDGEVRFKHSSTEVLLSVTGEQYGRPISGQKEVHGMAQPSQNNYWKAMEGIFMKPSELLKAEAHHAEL

[28] = biological target: proteins of U3A human fibrosarcoma cells (4462 proteins detected) (Homo sapiens, UniProt Q8NHQ9); conditions: protein DDX55; U3A cells
Sequence of proteins of U3A human fibrosarcoma cells (4462 proteins detected) (Homo sapiens, UniProt Q8NHQ9) (Q8NHQ9 whole entry): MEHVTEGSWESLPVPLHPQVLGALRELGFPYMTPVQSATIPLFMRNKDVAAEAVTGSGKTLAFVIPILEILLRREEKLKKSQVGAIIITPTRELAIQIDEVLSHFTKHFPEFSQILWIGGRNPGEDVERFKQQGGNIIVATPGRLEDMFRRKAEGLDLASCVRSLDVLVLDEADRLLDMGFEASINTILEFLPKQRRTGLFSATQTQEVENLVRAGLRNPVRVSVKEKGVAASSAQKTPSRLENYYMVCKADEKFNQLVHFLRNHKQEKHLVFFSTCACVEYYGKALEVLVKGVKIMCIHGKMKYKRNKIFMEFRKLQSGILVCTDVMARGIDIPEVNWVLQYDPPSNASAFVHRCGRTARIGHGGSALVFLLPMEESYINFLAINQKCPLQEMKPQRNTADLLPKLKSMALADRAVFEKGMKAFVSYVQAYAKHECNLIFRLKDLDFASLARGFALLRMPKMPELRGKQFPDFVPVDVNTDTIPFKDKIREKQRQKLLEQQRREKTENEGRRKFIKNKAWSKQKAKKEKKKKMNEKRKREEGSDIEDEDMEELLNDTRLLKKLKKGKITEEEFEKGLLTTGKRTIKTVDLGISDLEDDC

[29] = biological target: proteins of U3A human fibrosarcoma cells (4462 proteins detected) (Homo sapiens, UniProt P01040); conditions: protein CSTA, U3A cells
Sequence of proteins of U3A human fibrosarcoma cells (4462 proteins detected) (Homo sapiens, UniProt P01040) (P01040 whole entry): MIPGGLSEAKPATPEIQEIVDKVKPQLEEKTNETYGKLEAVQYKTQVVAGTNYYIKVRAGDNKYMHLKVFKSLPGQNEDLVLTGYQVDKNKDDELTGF

[30] = biological target: proteins of U3A human fibrosarcoma cells (4462 proteins detected) (Homo sapiens, UniProt P25440); conditions: protein BRD2; soluble abundance after heat, U3A cells

Sequence of proteins of U3A human fibrosarcoma cells (4462 proteins detected) (Homo sapiens, UniProt O75347) (O75347 whole entry): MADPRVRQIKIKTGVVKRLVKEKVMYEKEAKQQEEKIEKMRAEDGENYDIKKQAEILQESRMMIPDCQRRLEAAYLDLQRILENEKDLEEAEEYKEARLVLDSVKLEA

CCc1nc(N)nc(N)c1-c1ccc(Cl)cc1 [pyrimethamine]
Log2 (PYR/DMSO) [1]: 0.16 | Log2 (PYR/DMSO) [2]: -0.04 | Log2 (PYR/DMSO) [3]: 0.21 | Log2 (PYR/DMSO) [4]: -0.03 | Log2 (PYR/DMSO) [5]: 0.14 | Log2 (PYR/DMSO) [6]: 0.16 | Log2 (PYR/DMSO), MRPS2 [7]: 0.25 | Log2 (PYR/DMSO) [8]: 0.14 | Log2 (PYR/DMSO) [9]: 0.16 | Log2 (PYR/DMSO) [10]: 0.13 | Log2 (PYR/DMSO) [11]: 0.15 | Log2 (PYR/DMSO) [12]: 0.16 | Log2 (PYR/DMSO) [13]: -0.04 | Log2 (PYR/DMSO) [14]: -0.05 | Log2 (PYR/DMSO) [15]: 0.14 | Log2 (PYR/DMSO) [16]: 0.19 | Log2 (PYR/DMSO) [17]: 0.14 | Log2 (PYR/DMSO) [18]: 0.16 | Log2 (PYR/DMSO) [19]: 0.19 | Log2 (PYR/DMSO) [20]: -0.04 | Log2 (PYR/DMSO) [21]: 0.20 | Log2 (PYR/DMSO) [22]: -0.05 | Log2 (PYR/DMSO), UBE2Z [23]: 0.25 | Log2 (PYR/DMSO), TMEM115 [24]: 0.38 | Log2 (PYR/DMSO) [25]: 0.16 | Log2 (PYR/DMSO) [26]: 0.14 | Log2 (PYR/DMSO) [27]: -0.04 | Log2 (PYR/DMSO) [28]: 0.23 | Log2 (PYR/DMSO) [29]: -0.04 | Log2 (PYR/DMSO) [30]: 0.14
